{"source": "patent US20260022142A1", "about": "“MACROCYCLIC IMMUNOMODULATORS” (Bristol-Myers Squibb Company, priority 2022, published 2026)", "note": "pIC50: −log10 of the molar value. Bridge positions count the residues as written; N and C are the ends. Square brackets hold non-standard residues; d marks the D form. Peptide text beside a SMILES is read from it. * marks the point of attachment. ξ: configuration not given here. Phe(4-COOH) = N[C@@H](Cc1ccc(C(=O)O)cc1)C(=O)O; Bip = N[C@@H](Cc1ccc(-c2ccccc2)cc1)C(=O)O; Phe(3-Me) = Cc1cccc(C[C@H](N)C(=O)O)c1; Val(3-OH) = CC(C)(O)[C@H](N)C(=O)O; 4Pal = N[C@@H](Cc1ccncc1)C(=O)O; Cha = N[C@@H](CC1CCCCC1)C(=O)O; Thr(3ξ) = CC(O)[C@H](N)C(=O)O; Carboxymethyl = O=C(O)C*; Orn = NCCC[C@H](N)C(=O)O; Aun = NCCCCCCCCCCC(=O)O; Dab = NCC[C@H](N)C(=O)O; Dap = NC[C@H](N)C(=O)O; AEEA = NCCOCCOCC(=O)O"}
{"biological_target": "T1, PD-1/PD-L1 interaction (PE-labeled human PD-L1-Ig binding to Jurkat cell line over-expressing human PD-1) (Homo sapiens, UniProt Q15116)", "T1 construct": "expressed in transfected cells; host or cells: Jurkat", "T1 sequence (Q15116 25-288)": "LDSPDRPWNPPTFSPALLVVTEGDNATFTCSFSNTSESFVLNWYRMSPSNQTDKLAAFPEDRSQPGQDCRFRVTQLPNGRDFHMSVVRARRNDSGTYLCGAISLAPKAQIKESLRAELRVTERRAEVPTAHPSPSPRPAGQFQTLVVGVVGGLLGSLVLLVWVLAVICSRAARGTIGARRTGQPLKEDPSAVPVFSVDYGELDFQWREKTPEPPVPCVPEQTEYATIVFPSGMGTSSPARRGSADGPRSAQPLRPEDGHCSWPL", "assay": "Jurkat-PD-1 Cell Binding High-Content Screening Assay (CBA)", "format": "cell-based", "conditions": "Jurkat cell line over-expressing human PD-1; PE-labeled PD-L1-Ig 20 nM final; read-out: Jurkat hPD1-PDL1 IC50", "in_short": "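First, compound is added to PD-1-expressing Jurkat cells in serum-containing DMEM and left 2 h at 37° C. Next, PE-conjugated PD-L1-Ig is introduced at 20 nM final concentration for 1 hour. Finally, cells are fixed in 4% paraformaldehyde with Hoechst 33342, washed and imaged.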"}
{"smiles": "Cc1cccc(C[C@@H]2NC(=O)[C@H](CC(=O)O)NC(=O)[C@H](Cc3ccc(OCC(=O)O)cc3)NC(=O)[C@H](CN)NC(=O)CSC[C@@H](C(=O)N[C@@H](CCN)C(=O)NCCCCCCCCCCC(=O)O)NC(=O)[C@H](CO)NC(=O)[C@H](Cc3cnc[nH]3)NC(=O)[C@H](CC3CCCCC3)NC(=O)[C@H](CCN)NC(=O)[C@@H](CC(C)C)NC(=O)[C@H](CCCN)NC(=O)[C@H](Cc3ccc(OCC(=O)O)cc3)NC(=O)[C@H](Cc3ccc(-c4ccccc4)cc3)NC(=O)[C@H](Cc3ccc(C(=O)O)cc3)NC2=O)c1", "note": "[Compound 3705] ({CH2CO}-[Dap]Y(Carboxymethyl)D[Phe(3-Me)][Phe(4-COOH)][Bip]Y(Carboxymethyl)[Orn][dL][Dab][Cha]HSC[Dab][Aun]-OH; thioether N-14)", "pIC50": 7.62}
{"smiles": "Cc1cccc(C[C@@H]2NC(=O)[C@H](CC(=O)O)NC(=O)[C@H](Cc3ccc(OCC(=O)O)cc3)NC(=O)[C@H](Cc3ccccc3)NC(=O)CSC[C@@H](C(=O)N[C@@H](CCN)C(=O)NCCCCCCCCCCC(=O)O)NC(=O)[C@H](CO)NC(=O)[C@H](Cc3cnc[nH]3)NC(=O)[C@H](CC3CCCCC3)NC(=O)[C@H](CCN)NC(=O)[C@@H](CC(C)C)NC(=O)[C@H](CCCN)NC(=O)[C@H](Cc3ccc(OCC(=O)O)cc3)NC(=O)[C@H](Cc3ccc(-c4ccccc4)cc3)NC(=O)[C@H](Cc3ccc(C(=O)O)cc3)NC2=O)c1", "note": "[Compound 3706] ({CH2CO}-FY(Carboxymethyl)D[Phe(3-Me)][Phe(4-COOH)][Bip]Y(Carboxymethyl)[Orn][dL][Dab][Cha]HSC[Dab][Aun]-OH; thioether N-14)", "pIC50": 7.15}
{"smiles": "Cc1cccc(C[C@@H]2NC(=O)[C@H](CC(=O)O)NC(=O)[C@H](Cc3ccc(OCC(=O)O)cc3)NC(=O)[C@H](CN)NC(=O)CSC[C@@H](C(=O)N[C@@H](CCN)C(=O)NCCCCCCCCCCC(=O)O)NC(=O)[C@H](Cc3cnc[nH]3)NC(=O)[C@H](C(C)O)NC(=O)[C@H](CC3CCCCC3)NC(=O)[C@H](CCN)NC(=O)[C@@H](CC(C)C)NC(=O)[C@H](CCCN)NC(=O)[C@H](Cc3ccc(OCC(=O)O)cc3)NC(=O)[C@H](Cc3ccc(-c4ccccc4)cc3)NC(=O)[C@H](Cc3ccc(C(=O)O)cc3)NC2=O)c1", "note": "(stereo partly drawn) [Compound 3708] ({CH2CO}-[Dap]Y(Carboxymethyl)D[Phe(3-Me)][Phe(4-COOH)][Bip]Y(Carboxymethyl)[Orn][dL][Dab][Cha][Thr(3ξ)]HC[Dab][Aun]-OH; thioether N-14)", "pIC50": 7.94}
{"smiles": "Cc1cccc(C[C@@H]2NC(=O)[C@H](CC(=O)O)NC(=O)[C@H](Cc3ccc(OCC(=O)O)cc3)NC(=O)[C@H](Cc3ccccc3)NC(=O)CSC[C@@H](C(=O)N[C@@H](CCN)C(=O)NCCCCCCCCCCC(=O)O)NC(=O)[C@H](Cc3cnc[nH]3)NC(=O)[C@H](C(C)O)NC(=O)[C@H](CC3CCCCC3)NC(=O)[C@H](CCN)NC(=O)[C@@H](CC(C)C)NC(=O)[C@H](CCCN)NC(=O)[C@H](Cc3ccc(OCC(=O)O)cc3)NC(=O)[C@H](Cc3ccc(-c4ccccc4)cc3)NC(=O)[C@H](Cc3ccc(C(=O)O)cc3)NC2=O)c1", "note": "(stereo partly drawn) [Compound 3709] ({CH2CO}-FY(Carboxymethyl)D[Phe(3-Me)][Phe(4-COOH)][Bip]Y(Carboxymethyl)[Orn][dL][Dab][Cha][Thr(3ξ)]HC[Dab][Aun]-OH; thioether N-14)", "pIC50": 7.26}
{"smiles": "CC(=O)NCC[C@@H]1NC(=O)[C@H](C(C)C)NC(=O)[C@H](CC2CCCCC2)NC(=O)[C@H](CCN)NC(=O)[C@@H](CC(C)C)NC(=O)[C@H](CCC(=O)O)NC(=O)[C@H](C(C)C)NC(=O)[C@H](Cc2ccc(-c3ccccc3)cc2)NC(=O)[C@H](CC(C)C)NC(=O)[C@H](Cc2c[nH]c3ccccc23)NC(=O)[C@H](CC(=O)O)NC(=O)[C@H](Cc2ccc(OCC(=O)O)cc2)NC(=O)[C@H](C(C)O)NC(=O)CSC[C@@H](C(=O)NCCOCCOCC(=O)NCCCCCCCCCCC(=O)O)NC1=O", "note": "(stereo partly drawn) [Compound 3710] ({CH2CO}-[Thr(3ξ)]Y(Carboxymethyl)DWL[Bip]VE[dL][Dab][Cha]V[Dab](Ac)C[AEEA][Aun]-OH; thioether N-14)", "pIC50": 7.09}
{"smiles": "CC(=O)NCC[C@@H]1NC(=O)[C@H](C(C)C)NC(=O)[C@H](CC2CCCCC2)NC(=O)[C@H](CCN)NC(=O)[C@@H](CC(C)C)NC(=O)[C@H](CCC(=O)O)NC(=O)[C@H](C(C)C)NC(=O)[C@H](Cc2ccc(-c3ccccc3)cc2)NC(=O)[C@H](CC(C)C)NC(=O)[C@H](Cc2c[nH]c3ccccc23)NC(=O)[C@H](CC(=O)O)NC(=O)[C@H](Cc2ccc(OCC(=O)O)cc2)NC(=O)[C@H](Cc2ccc(OCC(=O)O)cc2)NC(=O)CSC[C@@H](C(=O)NCCOCCOCC(=O)NCCCCCCCCCCC(=O)O)NC1=O", "note": "[Compound 3711] ({CH2CO}-Y(Carboxymethyl)Y(Carboxymethyl)DWL[Bip]VE[dL][Dab][Cha]V[Dab](Ac)C[AEEA][Aun]-OH; thioether N-14)", "pIC50": 7.04}
{"smiles": "Cc1cccc(C[C@@H]2NC(=O)[C@H](CC(=O)O)NC(=O)[C@H](Cc3ccc(OCC(=O)O)cc3)NC(=O)[C@H](Cc3ccncc3)NC(=O)CSC[C@@H](C(=O)N[C@@H](CCN)C(=O)NCCCCCCCCCCC(=O)O)NC(=O)[C@H](CO)NC(=O)[C@H](C(C)(C)O)NC(=O)[C@H](CC3CCCCC3)NC(=O)[C@H](CCN)NC(=O)[C@@H](CC(C)C)NC(=O)[C@H](CCCN)NC(=O)[C@H](Cc3ccc(C(=O)O)cc3)NC(=O)[C@H](Cc3ccc(-c4ccccc4)cc3)NC(=O)[C@H](Cc3ccc(C(=O)O)cc3)NC2=O)c1", "note": "[Compound 3712] ({CH2CO}-[4Pal]Y(Carboxymethyl)D[Phe(3-Me)][Phe(4-COOH)][Bip][Phe(4-COOH)][Orn][dL][Dab][Cha][Val(3-OH)]SC[Dab][Aun]-OH; thioether N-14)", "pIC50": 6.89}
{"smiles": "Cc1cccc(C[C@@H]2NC(=O)[C@H](CC(=O)O)NC(=O)[C@H](Cc3ccc(OCC(=O)O)cc3)NC(=O)[C@H](CCN)NC(=O)CSC[C@@H](C(=O)N[C@@H](CCN)C(=O)NCCCCCCCCCCC(=O)O)NC(=O)[C@H](CO)NC(=O)[C@H](C(C)(C)O)NC(=O)[C@H](CC3CCCCC3)NC(=O)[C@H](Cc3c[nH]cn3)NC(=O)[C@@H](CC(C)C)NC(=O)[C@H](CCCN)NC(=O)[C@H](Cc3ccc(OCC(=O)O)cc3)NC(=O)[C@H](Cc3ccc(-c4ccccc4)cc3)NC(=O)[C@H](Cc3ccc(C(=O)O)cc3)NC2=O)c1", "note": "[Compound 3714] ({CH2CO}-[Dab]Y(Carboxymethyl)D[Phe(3-Me)][Phe(4-COOH)][Bip]Y(Carboxymethyl)[Orn][dL]H[Cha][Val(3-OH)]SC[Dab][Aun]-OH; thioether N-14)", "pIC50": 7.91}
{"smiles": "Cc1cccc(C[C@@H]2NC(=O)[C@H](CC(=O)O)NC(=O)[C@H](Cc3ccc(OCC(=O)O)cc3)NC(=O)[C@H](Cc3ccncc3)NC(=O)CSC[C@@H](C(=O)N[C@@H](CCN)C(=O)NCCCCCCCCCCC(=O)O)NC(=O)[C@H](CO)NC(=O)[C@H](C(C)(C)O)NC(=O)[C@H](CC3CCCCC3)NC(=O)[C@H](CCN)NC(=O)[C@@H](CC(C)C)NC(=O)[C@H](CCCN)NC(=O)[C@H](Cc3ccc(C(=O)O)cc3)NC(=O)[C@H](Cc3ccc(-c4ccccc4)cc3)NC(=O)[C@H](Cc3ccc(C(=O)O)cc3)NC2=O)c1", "note": "[Compound 3716] ({CH2CO}-[4Pal]Y(Carboxymethyl)D[Phe(3-Me)][Phe(4-COOH)][Bip][Phe(4-COOH)][Orn][dL][Dab][Cha][Val(3-OH)]SC[Dab][Aun]-OH; thioether N-14)", "pIC50": 6.78}
